{
  "source": "patent US9907479B2",
  "about": "“Contribution of oxidative stress to AF electrograms” (NORTHWESTERN UNIVERSITY, priority 2013, dated 2018)",
  "key": {"AF EGMs in HF [1]": {"test_system": "AF EGMs in HF", "assay": "EGM-guided targeted gene injection at ROS responsive PLA quadrant in HF dog, AF EGM mapping", "format": "in vivo", "conditions": "one HF dog, given during AF, 10 mg/kg, before gene injection", "description": "In one dog, HF was induced by RV pacing at 240 bpm×3 weeks. AF was then induced and recorded in the PLA by high density epicardial plaques (130 electrodes; […]). […] Real time analysis of AF EGMs was performed. The PLA was divided into 4 equal quadrants as shown in FIG. 15A and AF characteristics analyzed for each quadrant. […] One week later, AF mapping was performed again, in the absence and presence of apocynin. […] NOX2 expression (assessed by RT-PCR) was 70% lower in the injected quadrant than in neighboring, un-injected PLA."}, "AF EGMs in HF [2]": {"test_system": "AF EGMs in HF", "assay": "Acute ROS blockade during induced AF in pacing-induced HF dogs, epicardial AF EGM mapping", "format": "in vivo, dog", "conditions": "for effect on AF EGM parameters (DF, OI, FI, ShEn): apocynin 10 mg/kg", "description": "HF: In 4 animals, rapid RV pacing was performed at 240 beats/min for 3-4 weeks to induce HF. AF was then induced and AF EGMs recorded by an epicardial, multielectrode plaque (130 electrodes; […]). Apocynin (an NAPDH oxidase inhibitor) was then given (10 mg/kg) acutely. After apocynin administration, AF slowed and then terminated within 5 minutes (in every experiment). […] After apocynin washout (90 minutes), AF was re-induced and mito-TEMPO was given (0.7 mg/kg). […] The atrial tissue was then removed and examined for O^2- generation using lucigenin chemiluminescence. […] Thus, AF EGMs in HF are very sensitive to acute blockade of NADPH oxidase and mitochondrial ROS and AF EGM organization in response to ROS blockade closely correlates with the amount of O^2- in underlying tissue."}, "AF EGMs in a RAP model": {"test_system": "AF EGMs in a RAP model", "assay": "Acute ROS blockade in rapid atrial pacing (RAP) persistent AF model, AF EGM mapping", "format": "in vivo, dog", "description": "RAP: In 2 animals, rapid atrial pacing was performed at 600 bpm for 3-4 weeks to induce persistent AF. Apocynin was given as in HF above."}, "[3]": {"conditions": "HF dogs, induced AF, mito-TEMPO 0.7 mg/kg"}, "[4]": {"conditions": "RAP dogs (600 bpm, 3-4 weeks), persistent AF, apocynin given as in HF"}},
  "data": [
    {"smiles": "COc1cc(C(C)=O)ccc1O", "note": "[apocynin, Apocynin]", "values": [
      {"measurement": "effect on AF", "setting": "AF EGMs in HF [1]", "value": "organization of AF followed by AF termination"},
      {"measurement": "time to AF termination after administration", "setting": "AF EGMs in HF [2]; HF dogs (RV pacing 240 beats/min, 3-4 weeks), induced AF, 10 mg/kg given acutely, in every experiment", "value": "≤ 5", "unit": "min"},
      {"measurement": "effect on AF EGM parameters (DF, OI, FI, ShEn)", "setting": "AF EGMs in HF [2]; [3]", "value": "organization of all AF EGM parameters"},
      {"measurement": "change in DF", "setting": "AF EGMs in a RAP model; [4]", "value": "significant decrease"},
      {"measurement": "change in OI", "setting": "AF EGMs in a RAP model; [4]", "value": "increase"},
      {"measurement": "termination of AF", "setting": "AF EGMs in a RAP model; RAP dogs, 2 animals", "value": "In one animal, there was termination of AF"}
    ]},
    {"smiles": "CC1(C)CC(NC(=O)C[P+](c2ccccc2)(c2ccccc2)c2ccccc2)CC(C)(C)N1[O]", "note": "[mito-TEMPO]", "values": [
      {"measurement": "effect on AF (slowing, termination)", "setting": "AF EGMs in HF [2]; HF dogs, AF re-induced after apocynin washout (90 minutes), mito-TEMPO 0.7 mg/kg", "value": "gradual slowing and termination of AF in every animal"},
      {"measurement": "effect on AF EGM parameters (DF, OI, FI, ShEn)", "setting": "AF EGMs in HF [2]; [3]", "value": "organization of all AF EGM parameters"}
    ]}
  ]
}
